The numbers were not newly measured in patent US8835486B2, “Pharmaceutical formulation containing an HMG-COA reductase inhibitor and method for the preparation thereof” (priority 2006, dated 2014), which cites them from elsewhere.

Each structure is given as a SMILES string.

For the compound `CC(C)n1c(/C=C/C(O)CC(O)CC(=O)O)c(-c2ccc(F)cc2)c2ccccc21` (stereo not shown) [Fluvastatin], the solubility in water was over 50 mg/mL.
